# Measured values published in patent EP1832576A1, “4-Biarylyl-1-phenolyzetidin-2-ones” (Microbia Inc., priority 2003, dated 2005).
# Tested on: cholesterol absorption from the intestine
# Assay: In Vivo Assay of Hypolipidemic Agents using the Rat Cholesterol Absorption Model
# Parameters: species or system Female Sprague-Dawley rats
# Settings: po, Table 1, perorally, 1 mg/kg, 3H levels in serum three hours after 3H-cholesterol, versus vehicle only control
# Protocol: In Vivo Assay of Hypolipidemic Agents using the Rat Cholesterol Absorption Model. This model is based on models described by Burnett et al (2002), Bioorg. Med. Chem. Lett. 2002 Feb 11;12(3):315-8 and J. Lipid Res. 1999 Oct;40(10):1747-57. Female Sprague-Dawley rats weighing 150-250g are separated into […] and fasted overnight. The animals (4-6/group) are dosed perorally with 300µL test compounds in olive oil or suitable vehicle. Thirty minutes later, 3-5 microCuries ^3H-cholesterol per rat are delivered perorally in 300 µL olive oil. After three hours, 200 µL serum is collected, vortexed with scintillation fluid, and measured for radioactivity in a scintillation counter. Percent inhibition is defined as 100*(1-Ctest/Cctrl), where Ctest and Cctrl refer to ^3H levels in serum for the test compound and for the vehicle only control, respectively. Percent inhibition values are reported for a fixed dose. The ED50 is the dose at which the half-maximal effect on serum ^3H levels is observed for a given test compound.
# Representative compounds of the invention were tested in the Rat Cholesterol Absorption model above.
row,Compound,inhibition at 1 mg/kg
1,"O=Cc1ccc(-c2ccc([C@@H]3[C@@H](CC[C@H](O)c4ccc(F)cc4)C(=O)N3c3ccc(F)cc3)cc2)cc1 [Example 99, 4'-{(2S,3R)-1-(4-fluorophenyl)-3-[(3S)-3-(4-fluorophenyl)-3-hydroxypropyl]-4-oxoazetidin-2-yl}-biphenyl-4-carbaldehyde]",38%
2,"O=C1[C@H](CC[C@H](O)c2ccc(F)cc2)[C@@H](c2ccc(-c3cccc(B(O)O)c3)cc2)N1c1ccc(F)cc1 [Example 115, (4'-{(2S,3R)-1-(4-fluorophenyl)-3-[(3S)-3-(4-fluorophenyl)-3-hydroxypropyl]-4-oxoazetidin-2-yl}biphenyl-3-yl)boronic acid]",70%
3,"CN(C)S(=O)(=O)c1ccc(-c2ccc([C@@H]3[C@@H](CC[C@H](O)c4ccc(F)cc4)C(=O)N3c3ccc(F)cc3)cc2)cc1 [Example 15, 4'-{(2S,3R)-1-(4-fluorophenyl)-3-[(3S)-3-(4-fluorophenyl)-3-hydroxypropyl]-4-oxoazetidin-2-yl}-biphenyl-N,N-dimethylbiphenyl-4-sulfonamide]",8%
4,"Cc1cc(-c2ccc([C@@H]3[C@@H](CC[C@H](O)c4ccc(F)cc4)C(=O)N3c3ccc(F)cc3)cc2)ccc1F [Example 94, (3R,4S)-4-(4'-fluoro-3'-methylbiphenyl-4-yl)-1-(4-fluorophenyl)-3-[(3S)-3-(4-fluorophenyl)-3-hydroxypropyl]azetidin-2-one]",30%
5,"O=C1[C@H](CC[C@H](O)c2ccc(F)cc2)[C@@H](c2ccc(-c3cccc(O)c3)cc2)N1c1ccc(F)cc1 [Example 4, (3R,4S)-1-(4-Fluorophenyl)-3-[(3S)-3-(4-fluorophenyl)-3-hydroxypropyl]-4-(3'-hydroxybiphenyl-4-yl)azetidin-2-one]",72%
6,"Cc1ccccc1-c1ccc([C@@H]2[C@@H](CC[C@H](O)c3ccc(F)cc3)C(=O)N2c2ccc(F)cc2)cc1 [Example 98, (3R,4S)-1-(4-fluorophenyl)-3-[(3S)-3-(4-fluorophenyl).3-hydroxypropyl]-4-(2'-methylbiphenyl-4-yl)azetidin-2-one]",7%
7,"O=C(O)c1ccc(-c2ccc([C@@H]3[C@@H](CC[C@H](O)c4ccc(F)cc4)C(=O)N3c3ccc(F)cc3)cc2)cc1O [Example 110, 4'-{(2S,3R)-1-(4-fluorophenyl)-3-[(3S)-3-(4-fluorophenyl)-3-hydroxypropyl]-4-oxoazetidin-2-yl}-3-hydroxybiphenyl-4-carboxylic acid]",72%
8,"O=C1[C@H](CC[C@H](O)c2ccc(F)cc2)[C@@H](c2ccc(-c3ccccc3O)cc2)N1c1ccc(F)cc1 [Example 7, (3R,4S)-1-(4-fluorophenyl)-3-[(3S)-3-(4-fluorophenyl)-3-hydroxypropyl]-4-(2'-hydroxybiphenyl-4-yl)azetidin-2-one]",30%

# Same assay, conditions: po, Table 2, perorally, 1 mg/kg, 3H levels in serum three hours after 3H-cholesterol, versus vehicle only control
row,Compound,inhibition at 1 mg/kg
1,"O=C1[C@H](CC[C@H](O)c2ccc(F)cc2)[C@@H](c2ccc(-c3cccc(B(O)O)c3)cc2)N1c1ccccc1 [Example 59, (4'-{(2S,3R)-3-[(3S)-3-(4-Fluorophenyl)-3-hydroxypropyl]-4-oxo-1-phenylazetidin-2-yl}biphenyl-3-yl)boronic acid]",70%
2,"O=C1[C@H](CC[C@H](O)c2ccc(F)cc2)[C@@H](c2ccc(-c3cccc(O)c3)s2)N1c1ccccc1 [Example 50, (3R,4S)-3-[(3S)-3-(4-Fluorophenyl)-3-hydroxypropyl]-4-[5-(3-hydroxyphenyl)-2-thienyl]-1-phenylazetidin-2-one]",27%
3,"O=C1[C@H](CC[C@H](O)c2ccc(F)cc2)[C@@H](c2ccc(-c3ccc(O)cc3)cc2O)N1c1ccccc1 [Example 125, (3R,4S)-4-(3,4'-dihydroxybiphenyl-4-yl)-3-[(3S)-3-(4-fluorophenyl)-3-hydroxypropyl]-1-phenylazetidin-2-one]",64%
